Values belong to the compound of their own block, whether it stands above or below them.
System: 958667-338-R-J2-PDC tumor spheroids viability
Assay: Anticancer human tumor 958667-338-R-J2-PDC patient-derived colon adenocarcinoma cell line growth inhibition [PI3K]
Conditions: spheroids with HUVEC and MSC; for viability, T/C: stronger effect = lower value
Summary of the method: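 Multi-cell spheroids combine tumor cells with HUVEC and human MSCs, treated with targeted agents alone or with inavolisib, alpelisib, duvelisib or copanlisib. Concentrations fall in half-log steps from at or near clinical Cmax, or from 10 microM where Cmax is unknown; viability read-out.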

[1] = curve of first compound, second compound 0.0316 µM
[2] = curve of first compound, second compound 0.1 µM
[3] = curve of first compound, second compound 0.316 µM
[4] = curve of first compound, second compound 1 µM
[5] = second compound 0.0316 µM, first compound 0.0316 µM
[6] = second compound 0.0316 µM, first compound 0.1 µM
[7] = second compound 0.0316 µM, first compound 0.316 µM
[8] = second compound 0.0316 µM, first compound 1 µM
[9] = second compound 0.0316 µM, first compound 3.16 µM
[10] = second compound 0.0316 µM, first compound 10 µM
[11] = second compound 0.1 µM, first compound 0.0316 µM
[12] = second compound 0.1 µM, first compound 0.1 µM
[13] = second compound 0.1 µM, first compound 0.316 µM
[14] = second compound 0.1 µM, first compound 1 µM
[15] = second compound 0.1 µM, first compound 3.16 µM
[16] = second compound 0.1 µM, first compound 10 µM
[17] = second compound 0.316 µM, first compound 0.0316 µM
[18] = second compound 0.316 µM, first compound 0.1 µM
[19] = second compound 0.316 µM, first compound 0.316 µM
[20] = second compound 0.316 µM, first compound 1 µM
[21] = second compound 0.316 µM, first compound 3.16 µM
[22] = second compound 0.316 µM, first compound 10 µM
[23] = second compound 1 µM, first compound 0.0316 µM
[24] = second compound 1 µM, first compound 0.1 µM
[25] = second compound 1 µM, first compound 0.316 µM
[26] = second compound 1 µM, first compound 1 µM
[27] = second compound 1 µM, first compound 3.16 µM
[28] = second compound 1 µM, first compound 10 µM
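Also: spheroids exposed to compounds for seven days before readout.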

- IC50 [1]: > 10 µM
- IC50 [2]: > 10 µM
- IC50 [3]: > 10 µM
- IC50 [4]: > 10 µM
- IC50 (curve of first compound, second compound 3.16 µM): > 10 µM
- IC50 (curve of first compound, second compound 10 µM): > 10 µM
Structure (SMILES): CNC(=O)c1ccc(N2C(=S)N(c3ccc(C#N)c(C(F)(F)F)c3)C(=O)C2(C)C)cc1F + CC(Nc1ncnc2nc[nH]c12)c1cc2cccc(Cl)c2c(=O)n1-c1ccccc1
- viability, T/C [5]: 103%
- viability, T/C [6]: 94.7%
- viability, T/C [7]: 105%
- viability, T/C [8]: 101%
- viability, T/C [9]: 113%
- viability, T/C [10]: 99.2%
- viability, T/C [11]: 119%
- viability, T/C [12]: 98.7%
- viability, T/C [13]: 87.1%
- viability, T/C [14]: 83.5%
- viability, T/C [15]: 114%
- viability, T/C [16]: 87%
- viability, T/C [17]: 103%
- viability, T/C [18]: 88.3%
- viability, T/C [19]: 101%
- viability, T/C [20]: 107%
- viability, T/C [21]: 121%
- viability, T/C [22]: 107%
- viability, T/C [23]: 96.7%
- viability, T/C [24]: 91.3%
- viability, T/C [25]: 102%
- viability, T/C [26]: 96.4%
- viability, T/C [27]: 104%
- viability, T/C [28]: 94%
- viability, T/C (second compound 3.16 µM, first compound 0.0316 µM): 91.8%
- viability, T/C (second compound 3.16 µM, first compound 0.1 µM): 86.3%
- viability, T/C (second compound 3.16 µM, first compound 0.316 µM): 72.7%
- viability, T/C (second compound 3.16 µM, first compound 1 µM): 101%
- viability, T/C (second compound 3.16 µM, first compound 3.16 µM): 119%
- viability, T/C (second compound 3.16 µM, first compound 10 µM): 84.2%
- viability, T/C (second compound 10 µM, first compound 0.0316 µM): 103%
- viability, T/C (second compound 10 µM, first compound 0.1 µM): 96.5%
- viability, T/C (second compound 10 µM, first compound 0.316 µM): 101%
- viability, T/C (second compound 10 µM, first compound 1 µM): 87.9%
- viability, T/C (second compound 10 µM, first compound 3.16 µM): 115%
- viability, T/C (second compound 10 µM, first compound 10 µM): 74.8%

- IC50 (compound alone, run of 06/13/2023): 147 nM [middle of 8 runs]
Structure (SMILES): COc1c(OCCCN2CCOCC2)ccc2c3n(c(=NC(=O)c4cnc(N)nc4)nc12)CCN3
- viability, T/C (compound 0.00316 µM): 92.6% [middle of 8 runs]
- viability, T/C (compound 0.0316 µM): 71.9% [middle of 8 runs]
- viability, T/C (compound 0.1 µM): 54% [middle of 8 runs]
- viability, T/C (compound 0.316 µM): 38.8% [middle of 8 runs]
- viability, T/C (compound 1 µM): 18.2% [middle of 8 runs]

- IC50 (curve of first compound, second compound 0.00316 µM): > 10 µM
- IC50 (curve of first compound, second compound 0.01 µM): > 10 µM
- IC50 [1]: > 10 µM
- IC50 [2]: > 10 µM
- IC50 [3]: < 0.0316 µM
- IC50 [4]: < 0.0316 µM
Structure (SMILES): C=CC(=O)N1CCN(c2nc(=O)n(-c3c(C)ccnc3C(C)C)c3nc(-c4c(O)cccc4F)c(F)cc23)C(C)C1 (stereo not given) + COc1c(OCCCN2CCOCC2)ccc2c3n(c(=NC(=O)c4cnc(N)nc4)nc12)CCN3
- viability, T/C (second compound 0.00316 µM, first compound 0.0316 µM): 97.1%
- viability, T/C (second compound 0.00316 µM, first compound 0.1 µM): 97.6%
- viability, T/C (second compound 0.00316 µM, first compound 0.316 µM): 88.8%
- viability, T/C (second compound 0.00316 µM, first compound 1 µM): 117%
- viability, T/C (second compound 0.00316 µM, first compound 3.16 µM): 103%
- viability, T/C (second compound 0.00316 µM, first compound 10 µM): 121%
- viability, T/C (second compound 0.01 µM, first compound 0.0316 µM): 103%
- viability, T/C (second compound 0.01 µM, first compound 0.1 µM): 103%
- viability, T/C (second compound 0.01 µM, first compound 0.316 µM): 87%
- viability, T/C (second compound 0.01 µM, first compound 1 µM): 92.6%
- viability, T/C (second compound 0.01 µM, first compound 3.16 µM): 107%
- viability, T/C (second compound 0.01 µM, first compound 10 µM): 94%
- viability, T/C [5]: 82.1%
- viability, T/C [6]: 83%
- viability, T/C [7]: 71.8%
- viability, T/C [8]: 72.4%
- viability, T/C [9]: 78.2%
- viability, T/C [10]: 69.9%
- viability, T/C [11]: 61%
- viability, T/C [12]: 72.7%
- viability, T/C [13]: 52.9%
- viability, T/C [14]: 62.6%
- viability, T/C [15]: 72.4%
- viability, T/C [16]: 64.2%
- viability, T/C [17]: 36.3%
- viability, T/C [18]: 36%
- viability, T/C [19]: 44.4%
- viability, T/C [20]: 42%
- viability, T/C [21]: 47.3%
- viability, T/C [22]: 46.1%
- viability, T/C [23]: 22.6%
- viability, T/C [24]: 23.1%
- viability, T/C [25]: 18.8%
- viability, T/C [26]: 21.2%
- viability, T/C [27]: 25.3%
- viability, T/C [28]: 18.2%

Reference: PubChem BioAssay AID1963963 (Molecular Pharmacology Branch, DTP, NCI, 2024)
